Results: US20090149482A1, “STEREOCHEMICALLY DEFINED DIPEPTIDE ESTERS OF ANTIVIRAL AGENTS FOR ENHANCED OCULAR TREATMENT” (priority 2001, published 2009)
Like-named read-outs stand apart in the source and are kept apart here.

Legend:
Caco-2 cell suspension = conditions: Caco-2, pH 7.4
[1] = test system: human fibroblast foreskin cells (HFF)
HSV-1 strain McKrae = assay: HSV-1 epithelial keratitis rabbit model, topical treatment, SLE scores; type: in vivo; conditions: 14 days post-inoculation, 1% topical 5 times per day
Source text: (§1) The rabbit eye is an excellent model to study acute HSV-1 epithelial keratitis. Also, spontaneous and induced ocular HSV-1 shedding and corneal epithelial disease in rabbits has been used as a model of human ocular HSV-1 reactivation and recurrence. HSV-1 strain McKrae was used in studies for epithelial keratitis. HSV-1 strain RE was used for studies of HSV stromal keratitis.
i) Epithelial Keratitis: A group of ten rabbits was used to study each compound. Both eyes of all rabbits were used. An aqueous vehicle (like a placebo) and one positive control were obtained using 1% TFT (Viroptic®). Each compound at 1% concentration (TFT=33 mM, Gly-Gly-ACV=26.6 mM, Val-Val-ACV=18.6 mM) were applied (50 μl) topically 5 times per day every two hours starting at 8:00 a.m. and ending at 4:00 p.m. The treatment began on the 3rd post-inoculation day and continued for 5 consecutive days. Slit-lamp examinations were performed once every day for 8 days and thereafter once every other day until lesions resolved.

[2] = rat, in vivo, po
HSV-1 strain RE = assay: HSV-1 stromal keratitis rabbit model, topical treatment, SLE scores; type: in vivo; conditions: 13 days post-inoculation, 1% topical
Source text: as §1
ii) Stromal Keratitis: The experiment is similar to the part (i) experiment as far as the treatment cycles for all experimental drugs (TFT and Val-Val-ACV) are concerned. The effect of Val-Val-ACV on stromal keratitis induced by intrastromal injection with a high (20 μl of a 1×10^7 pfu/ml stock) titer of HSV-1RE strain was compared to that of TFT. Each compound at 1% concentration (TFT=33 mM, Val-Val-ACV=18.6 mM) was applied topically. The same scoring as noted in Table 4 is used for stromal keratitis. Emphasis is placed on the stromal edema and visibility into the aqueous chamber and the visualization of the pupil and iris.
A group of ten rabbits were used to study each compound. Both eyes of all rabbits were treated. Three to four groups of 10 rabbits are used in one experiment. This includes vehicle control, TFT, and the newly synthesized antiviral Val-Val-ACV.

[3] = rabbits, i.v. infusion, aqueous humor
physchem = conditions: buffer, pH 5.6
in vitro [4] = conditions: human
in vitro [5] = conditions: male, New Zealand albino, rabbit, tissue homogenate
in vitro [6] = conditions: human, Caco-2, pH 7.4
in vitro [7] = conditions: human; remark: listed apart in the source

## CC(C)C(N)C(=O)NC(C(=O)OCCOCn1cnc2c(=O)[nH]c(N)nc21)C(C)C (stereo not drawn) [Val-Val-ACV, Val-Valacyclovir]
Caco-2 cell suspension
  10^2 × kobs: 2.14 ± 0.44 min^−1mg^−1 protein
Caco-2 cell suspension; human
  t1/2: 0.553 ± 0.115 h
[1]; EBV column
  CC50: > 93.1 µM
[1]; HCMV column
  CC50: > 186 µM
[1]; HSV-2 column
  CC50: > 186 µM
[1]; VZV column
  CC50: > 186 µM
[1]; read-out: CC50 (concentration required to inhibit cell proliferation by 50%), HSV-1
  CC50: > 186 µM
HSV-1 strain McKrae
  Concentration required to achieve an SLE Score of 0.3: 18.6 mM
[2]
  amino acid intermediate metabolite after oral administration: no intact amino acid intermediate metabolite VACV could be detected
HSV-1 strain RE
  Concentration required to achieve an SLE Score of 0.2: 18.6 mM
[3]
  MRT(aqueous): *188.39 min
rabbit, tissue homogenate
  t1/2: 1.4 h

## CC(C)[C@H](N)C(=O)OCCOCn1cnc2c(=O)[nH]c(N)nc21 [Val-ACV, L-Valine-acyclovir]
physchem
  half-life: ~72 h
Caco-2 monolayers
  inhibition in transport in presence of Gly-Sar: 47 % inhibition
In vitro [4]; CC50 (concentration required to inhibit cell proliferation by 50%), HSV-1
  CC50: > 277 µM
In vitro [4]; CC50, EBV column
  CC50: > 138 µM
In vitro [4]; CC50, HCMV column
  CC50: > 277 µM
In vitro [4]; CC50, HSV-2 column
  CC50: > 277 µM
In vitro [4]; CC50, VZV column
  CC50: > 100 µM
Caco-2 cell suspension; human
  10^2 × kobs: 0.56 ± 0.038 min^−1mg^−1 protein
In vitro [5]; corneal half-life, corneal tissue
  half-life: 1.42 h
In vitro [5]; t1/2 of conversion to ACV, corneal tissue homogenate
  half-life: ~1.42 h
In vitro [6]
  half-life: 2.06 ± 0.138 h
In vitro [7]; Caco-2, pH 6
  Papp: 3.01 ± 0.21 ×10⁻⁶ cm/s
In vitro [7]; Caco-2, pH 7.4
  Papp: 5.67 ± 1.13 ×10⁻⁶ cm/s
Aqueous Humor
  hydrolytic rate constant k: 21.8 (±1.2) k × 10^3 min^−1 mg^−1 protein
Cornea homogenate
  hydrolytic rate constant k: 8.1 (±1.2) k × 10^3 min^−1 mg^−1 protein
Iris-Ciliary Body homogenate
  hydrolytic rate constant k: 283.1 (±19.7) k × 10^3 min^−1 mg^−1 protein
Lens homogenate
  hydrolytic rate constant k: 10.1 (±0.3) k × 10^3 min^−1 mg^−1 protein
Vitreous Humor
  hydrolytic rate constant k: 7.1 (±0.9) k × 10^3 min^−1 mg^−1 protein
